Results taken from publication PMC4673153, “Discovery of benzo[e]pyridoindolones as kinase inhibitors that disrupt mitosis exit while erasing AMPK-Thr172 phosphorylation on the spindle” (Oncotarget, 2015).
Counter-ions that a name gives are not always drawn.

How the values were obtained:
Format in all cases: biochemical
CaMKKβ = target: T1, CaMKKβ (Homo sapiens, UniProt Q96RR4); test: kinase panel profiling at […], recombinant enzyme (MRC Dundee)
T1 construct: gene CAMKK2

ARK5/Nuak1 = target: T2, ARK5/Nuak1 (Homo sapiens, UniProt O60285); test: in vitro kinase assay, recombinant enzyme (MRC Dundee)
T2 sequence (O60285 1-661): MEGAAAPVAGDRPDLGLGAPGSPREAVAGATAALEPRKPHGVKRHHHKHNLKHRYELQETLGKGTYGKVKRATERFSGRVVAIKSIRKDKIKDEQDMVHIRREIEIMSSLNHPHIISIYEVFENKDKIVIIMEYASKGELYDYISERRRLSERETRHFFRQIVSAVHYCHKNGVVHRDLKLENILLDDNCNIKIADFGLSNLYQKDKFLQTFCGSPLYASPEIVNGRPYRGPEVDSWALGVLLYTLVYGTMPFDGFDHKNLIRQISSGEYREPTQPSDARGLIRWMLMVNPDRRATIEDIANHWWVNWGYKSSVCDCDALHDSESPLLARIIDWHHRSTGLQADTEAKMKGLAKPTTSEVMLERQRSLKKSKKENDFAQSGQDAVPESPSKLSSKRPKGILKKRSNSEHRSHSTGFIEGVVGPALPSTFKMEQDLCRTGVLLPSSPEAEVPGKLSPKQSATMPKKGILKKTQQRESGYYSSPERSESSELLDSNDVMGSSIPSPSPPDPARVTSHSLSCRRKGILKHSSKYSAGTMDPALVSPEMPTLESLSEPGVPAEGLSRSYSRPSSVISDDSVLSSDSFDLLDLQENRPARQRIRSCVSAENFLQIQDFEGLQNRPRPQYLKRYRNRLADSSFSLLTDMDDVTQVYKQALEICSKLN

Melk = Melk (Homo sapiens, UniProt Q14680); test: as above
Flt1/V-EGFR1 = target: T3, Flt1/V-EGFR1 (Homo sapiens, UniProt P17948); test: as above
T3 sequence (P17948 781-1338 limits assumed): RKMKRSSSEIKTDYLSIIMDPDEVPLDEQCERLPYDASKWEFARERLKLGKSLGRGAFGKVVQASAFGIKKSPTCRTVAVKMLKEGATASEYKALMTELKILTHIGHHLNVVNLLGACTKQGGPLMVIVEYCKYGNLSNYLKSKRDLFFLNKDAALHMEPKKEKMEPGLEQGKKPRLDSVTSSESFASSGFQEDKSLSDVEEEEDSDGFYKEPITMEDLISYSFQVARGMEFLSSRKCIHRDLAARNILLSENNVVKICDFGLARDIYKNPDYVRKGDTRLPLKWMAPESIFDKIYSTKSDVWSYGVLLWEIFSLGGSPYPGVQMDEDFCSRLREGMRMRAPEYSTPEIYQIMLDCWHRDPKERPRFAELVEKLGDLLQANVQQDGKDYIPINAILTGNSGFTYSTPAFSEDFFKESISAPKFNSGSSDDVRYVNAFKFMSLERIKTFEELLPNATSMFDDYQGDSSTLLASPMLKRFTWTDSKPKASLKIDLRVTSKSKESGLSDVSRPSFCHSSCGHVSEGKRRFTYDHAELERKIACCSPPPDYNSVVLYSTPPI

Chk2 = target: T4, Chk2 (Homo sapiens, UniProt O96017); test: as above
T4 construct: gene CHEK2

Sik2 = Sik2 (Homo sapiens, UniProt Q9H0K1); test: as above
Tak1 = target: T5, Tak1 (Homo sapiens, UniProt O43318); test: as above
T5 construct: gene MAP3K7
T5 sequence (O43318 1-606): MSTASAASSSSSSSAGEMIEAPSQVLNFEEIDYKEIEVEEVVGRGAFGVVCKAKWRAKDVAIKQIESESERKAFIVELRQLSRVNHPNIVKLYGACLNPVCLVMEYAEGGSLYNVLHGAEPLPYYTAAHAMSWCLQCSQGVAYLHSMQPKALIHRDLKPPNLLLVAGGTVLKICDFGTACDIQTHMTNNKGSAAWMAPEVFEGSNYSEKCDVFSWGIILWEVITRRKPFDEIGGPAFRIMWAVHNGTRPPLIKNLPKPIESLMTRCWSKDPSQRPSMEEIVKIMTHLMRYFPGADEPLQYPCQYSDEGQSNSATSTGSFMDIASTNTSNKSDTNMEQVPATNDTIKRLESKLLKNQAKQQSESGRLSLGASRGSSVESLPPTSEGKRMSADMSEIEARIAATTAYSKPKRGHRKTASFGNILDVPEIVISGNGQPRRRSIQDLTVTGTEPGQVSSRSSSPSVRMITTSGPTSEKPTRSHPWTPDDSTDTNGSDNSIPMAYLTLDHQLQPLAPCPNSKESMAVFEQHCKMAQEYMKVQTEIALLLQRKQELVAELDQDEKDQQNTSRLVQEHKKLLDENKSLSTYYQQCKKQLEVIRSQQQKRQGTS
T5 sequence (Q15750 1-504 partner): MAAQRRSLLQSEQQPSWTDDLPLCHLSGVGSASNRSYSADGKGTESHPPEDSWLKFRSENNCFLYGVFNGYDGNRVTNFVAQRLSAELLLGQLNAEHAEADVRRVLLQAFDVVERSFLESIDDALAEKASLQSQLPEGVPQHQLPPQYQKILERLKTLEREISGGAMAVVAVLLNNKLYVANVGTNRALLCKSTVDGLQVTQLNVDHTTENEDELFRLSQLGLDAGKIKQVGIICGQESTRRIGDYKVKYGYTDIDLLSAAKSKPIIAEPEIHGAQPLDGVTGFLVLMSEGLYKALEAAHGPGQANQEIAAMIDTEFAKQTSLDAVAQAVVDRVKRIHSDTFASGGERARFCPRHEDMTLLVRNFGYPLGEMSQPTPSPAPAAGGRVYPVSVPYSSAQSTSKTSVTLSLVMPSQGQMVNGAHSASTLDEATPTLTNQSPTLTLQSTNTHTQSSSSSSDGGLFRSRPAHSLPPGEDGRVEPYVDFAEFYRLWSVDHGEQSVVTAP

Chk1 = target: T6, Chk1 (Homo sapiens, UniProt O14757); test: as above
T6 construct: gene CHEK1
T6 sequence (O14757 1-476): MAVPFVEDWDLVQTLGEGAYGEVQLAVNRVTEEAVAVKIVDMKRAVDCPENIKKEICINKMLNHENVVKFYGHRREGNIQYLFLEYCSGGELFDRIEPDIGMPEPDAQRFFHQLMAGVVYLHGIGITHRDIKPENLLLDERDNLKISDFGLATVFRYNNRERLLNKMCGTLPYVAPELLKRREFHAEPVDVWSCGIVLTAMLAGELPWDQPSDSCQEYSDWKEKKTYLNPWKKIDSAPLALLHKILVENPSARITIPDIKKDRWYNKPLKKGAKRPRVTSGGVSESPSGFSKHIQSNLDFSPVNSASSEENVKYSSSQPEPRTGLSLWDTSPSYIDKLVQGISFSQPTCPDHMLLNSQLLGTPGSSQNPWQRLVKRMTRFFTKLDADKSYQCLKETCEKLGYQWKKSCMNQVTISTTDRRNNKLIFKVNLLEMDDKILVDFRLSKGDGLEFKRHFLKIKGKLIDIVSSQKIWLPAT

aurora B kinase = target: T7, aurora B kinase (Homo sapiens, UniProt Q96GD4); test: as above
T7 construct: gene AURKB

phosphorylase kinase = test: as above

T7 sequence (Q96GD4 whole entry): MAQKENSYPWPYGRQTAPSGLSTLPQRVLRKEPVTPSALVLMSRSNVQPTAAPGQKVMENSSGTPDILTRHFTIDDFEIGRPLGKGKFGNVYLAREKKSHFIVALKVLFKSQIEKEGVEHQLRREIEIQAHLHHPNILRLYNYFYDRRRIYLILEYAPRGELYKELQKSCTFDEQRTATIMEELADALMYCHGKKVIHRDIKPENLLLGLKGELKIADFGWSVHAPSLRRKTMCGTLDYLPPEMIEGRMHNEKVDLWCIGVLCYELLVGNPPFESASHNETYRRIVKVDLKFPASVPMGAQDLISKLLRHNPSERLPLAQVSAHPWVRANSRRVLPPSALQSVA
T4 sequence (O96017 whole entry): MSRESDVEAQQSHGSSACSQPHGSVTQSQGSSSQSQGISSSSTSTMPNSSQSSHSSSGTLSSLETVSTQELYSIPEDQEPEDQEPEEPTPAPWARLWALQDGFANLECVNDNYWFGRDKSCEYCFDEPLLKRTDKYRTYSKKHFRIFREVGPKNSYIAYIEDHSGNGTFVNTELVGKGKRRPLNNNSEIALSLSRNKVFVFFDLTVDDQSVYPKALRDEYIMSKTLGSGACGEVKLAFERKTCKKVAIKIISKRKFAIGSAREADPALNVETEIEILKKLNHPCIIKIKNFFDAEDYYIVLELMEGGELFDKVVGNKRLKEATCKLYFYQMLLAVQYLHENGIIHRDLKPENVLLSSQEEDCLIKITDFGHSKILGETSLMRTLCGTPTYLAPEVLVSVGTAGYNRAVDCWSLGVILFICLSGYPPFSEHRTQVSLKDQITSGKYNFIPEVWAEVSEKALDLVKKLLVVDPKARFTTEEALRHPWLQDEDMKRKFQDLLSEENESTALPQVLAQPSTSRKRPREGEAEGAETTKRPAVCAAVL
T1 sequence (Q96RR4 2-588): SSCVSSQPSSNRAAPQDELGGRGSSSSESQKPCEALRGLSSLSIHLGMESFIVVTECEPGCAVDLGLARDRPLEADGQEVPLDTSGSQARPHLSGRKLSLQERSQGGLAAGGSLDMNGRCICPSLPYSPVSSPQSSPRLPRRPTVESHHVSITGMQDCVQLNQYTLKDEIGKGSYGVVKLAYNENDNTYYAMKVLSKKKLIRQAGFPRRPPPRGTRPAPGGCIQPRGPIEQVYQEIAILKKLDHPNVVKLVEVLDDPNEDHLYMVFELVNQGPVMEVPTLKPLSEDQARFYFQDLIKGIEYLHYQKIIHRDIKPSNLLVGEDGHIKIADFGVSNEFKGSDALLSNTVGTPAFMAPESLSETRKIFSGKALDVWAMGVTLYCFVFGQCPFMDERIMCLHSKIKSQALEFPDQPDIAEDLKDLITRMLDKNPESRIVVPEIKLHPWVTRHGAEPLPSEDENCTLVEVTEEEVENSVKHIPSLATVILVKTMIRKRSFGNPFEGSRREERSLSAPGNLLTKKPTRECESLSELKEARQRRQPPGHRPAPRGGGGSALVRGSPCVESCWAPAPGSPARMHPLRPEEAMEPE
Melk, sequence (Q14680 whole entry): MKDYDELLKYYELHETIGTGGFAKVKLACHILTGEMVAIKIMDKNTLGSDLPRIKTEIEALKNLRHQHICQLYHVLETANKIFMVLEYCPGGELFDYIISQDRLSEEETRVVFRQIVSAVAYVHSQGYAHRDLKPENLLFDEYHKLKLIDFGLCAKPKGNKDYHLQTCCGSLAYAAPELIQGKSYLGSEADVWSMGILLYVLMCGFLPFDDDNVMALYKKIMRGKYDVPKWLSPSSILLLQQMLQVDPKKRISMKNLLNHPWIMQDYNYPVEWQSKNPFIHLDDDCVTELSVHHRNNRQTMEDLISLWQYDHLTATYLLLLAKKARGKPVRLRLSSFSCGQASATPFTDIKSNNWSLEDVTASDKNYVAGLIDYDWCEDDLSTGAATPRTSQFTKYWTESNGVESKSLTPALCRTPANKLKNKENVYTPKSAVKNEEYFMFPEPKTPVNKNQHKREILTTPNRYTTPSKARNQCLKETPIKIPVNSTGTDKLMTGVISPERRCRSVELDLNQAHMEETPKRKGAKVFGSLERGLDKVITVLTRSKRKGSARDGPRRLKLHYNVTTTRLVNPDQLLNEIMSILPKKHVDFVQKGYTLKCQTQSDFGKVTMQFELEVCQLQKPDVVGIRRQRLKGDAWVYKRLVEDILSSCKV
Sik2, sequence (Q9H0K1 whole entry): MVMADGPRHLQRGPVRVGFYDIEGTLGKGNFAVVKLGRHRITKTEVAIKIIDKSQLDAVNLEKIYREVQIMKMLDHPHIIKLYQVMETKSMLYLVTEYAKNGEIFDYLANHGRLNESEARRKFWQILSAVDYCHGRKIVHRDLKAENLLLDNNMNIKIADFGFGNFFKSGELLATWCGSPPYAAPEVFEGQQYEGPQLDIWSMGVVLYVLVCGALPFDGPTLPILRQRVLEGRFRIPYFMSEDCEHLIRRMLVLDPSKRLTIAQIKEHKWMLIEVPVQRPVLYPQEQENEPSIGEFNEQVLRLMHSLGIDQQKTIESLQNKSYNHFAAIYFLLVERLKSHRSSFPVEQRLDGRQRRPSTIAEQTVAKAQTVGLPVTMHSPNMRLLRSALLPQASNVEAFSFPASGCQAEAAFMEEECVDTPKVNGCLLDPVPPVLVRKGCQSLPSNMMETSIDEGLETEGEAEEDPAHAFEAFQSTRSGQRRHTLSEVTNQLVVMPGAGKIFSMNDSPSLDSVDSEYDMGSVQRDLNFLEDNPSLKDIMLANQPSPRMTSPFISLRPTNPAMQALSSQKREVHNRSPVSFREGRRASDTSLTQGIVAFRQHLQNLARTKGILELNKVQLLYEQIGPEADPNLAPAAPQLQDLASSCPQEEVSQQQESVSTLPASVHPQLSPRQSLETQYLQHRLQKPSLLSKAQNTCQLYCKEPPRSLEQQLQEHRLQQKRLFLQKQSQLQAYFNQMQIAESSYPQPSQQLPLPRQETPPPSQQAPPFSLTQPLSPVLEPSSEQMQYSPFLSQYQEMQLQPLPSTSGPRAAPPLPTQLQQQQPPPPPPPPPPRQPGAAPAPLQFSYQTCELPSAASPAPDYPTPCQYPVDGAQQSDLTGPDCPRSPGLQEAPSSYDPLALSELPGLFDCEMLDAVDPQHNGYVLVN

## Cc1c[nH]c(=O)c2c1[nH]c1ccc3cc(OCCN4CCCCC4)ccc3c12 [C5M, 3-(2-(Piperidin-1-yl)ethoxy)-8-methyl-7H, 10H-benzo[e]pyrido(4,3-b)indol-11-one maleate]
CaMKKβ
  kinase panel profiling at 250 nM, recombinant enzyme (MRC Dundee): Among the fifteen best targets, we noted the presence of several AMPK-related kinases
ARK5/Nuak1
  IC50: 4.8 nM
Melk
  IC50: 13.3 nM
Flt1/V-EGFR1
  IC50: 37 nM
Chk2
  IC50: 13.6 nM
Sik2
  IC50: 12.4 nM
Tak1
  IC50: 6 nM
Chk1
  IC50: 13.6 nM
Aurora B kinase
  IC50: 118 nM
Phosphorylase kinase
  IC50: 18.5 nM
